Assay results as given in patent US7687508B2, “Cyclic derivatives as modulators of chemokine receptor activity” (Bristol-Myers Squibb Company, priority 2006, dated 2010).

Legend:
human CCR2 [1] = biological target: T1, human CCR2 (Homo sapiens, UniProt P41597); test: THP-1 binding (CCR2, 125I-human MCP-1 tracer); design: THP-1 human monocytic leukemic cell line, which expresses endogenous CCR2; endogenous in cells; host or cells: THP-1 human monocytic leukemia cells; conditions: metabolite examples; THP-1 cells, 125I-MCP-1
T1 sequence (P41597 1-360 isoform P41597-2): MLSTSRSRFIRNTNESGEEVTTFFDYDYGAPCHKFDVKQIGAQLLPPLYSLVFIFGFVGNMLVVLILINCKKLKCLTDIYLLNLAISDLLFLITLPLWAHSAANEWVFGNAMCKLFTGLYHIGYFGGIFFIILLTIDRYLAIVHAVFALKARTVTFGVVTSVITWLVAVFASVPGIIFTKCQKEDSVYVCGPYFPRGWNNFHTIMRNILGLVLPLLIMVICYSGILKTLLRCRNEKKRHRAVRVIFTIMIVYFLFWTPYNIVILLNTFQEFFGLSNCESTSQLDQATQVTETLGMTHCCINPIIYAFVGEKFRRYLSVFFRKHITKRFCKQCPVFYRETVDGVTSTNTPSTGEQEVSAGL
Method: The human CCR2 binding assay was also established with the THP-1 human monocytic leukemic cell line, which expresses endogenous CCR2, using 125I-human MCP-1 as the tracer ligand. Radioligand competition binding assays were used for assessment of binding affinity of test compounds to the CCR2 receptor. For radioligand competition studies, 100 μl containing 2.5×10^5 THP-1 cells/well (in assay buffer containing 50 mM HEPES, pH7.4, 5 mM MgCl2, 1 mM CaCl2 and 0.5% BSA) were added to 96-well assay plates containing test compound in 3-fold serial dilution, with final concentrations ranging from […]. Subsequently, 50 μl ^125I-MCP-1 radioligand at a final concentration of 0.2 nM in assay buffer were added to the reaction. After a 90 minute incubation period at room temperature, the binding reaction was terminated by harvesting on GF/B filter plates (PerkinElmer Cat. No. 6005177) followed by washing with ice-cold wash buffer (50 mM HEPES, pH 7.4, 0.1% BSA, 0.5 M NaCl) to remove unbound ligand. After washing, the plate was dried for 45 minutes at 60° C. followed by addition of 40 μl MicroScint 20 scintillation fluid, sealed and analyzed by the Packard TopCount reader. […] The competition data was plotted as a percentage inhibition of radioligand specific bound in the absence of test compound (percent of total signal). After correcting for non-specific binding, IC50 values were determined.

human CCR2 [2] = biological target: T1, human CCR2; test: Human peripheral blood mononuclear cell binding (CCR2 binding), 125I-human MCP-1 tracer; design: hPBMCs were isolated from human leukopak (Biological Specialty Inc.); endogenous in cells; host or cells: human peripheral blood mononuclear cells from leukopak (Biological Specialty Inc.); conditions: hPBMCs, 125I-MCP-1
Method: See also: Yoshimura et al., J. Immunol. 1990, 145, 292. The human CCR2 binding assay was established with human peripheral blood mononuclear cells (hPBMCs) using ^125I-human MCP-1 as the tracer ligand. hPBMCs were isolated from human leukopak (Biological Specialty Inc.) using a standard protocol with Ficoll-Hypaque (Mediatech Cellgro). Isolated hPBMCs were washed and diluted to 1×10^7/ml in binding buffer (RPMI-1640, 0.1% BSA, 20 mM Hepes, pH 7.4). ^125I-MCP-1 (NEN/Perk Elmer) was diluted to 0.45 nM in binding buffer. The compound was diluted in binding buffer at 3-fold the final concentrations used in the binding assay. The binding assay was performed using a 96-well filter plate (Millipore). Total ^125I-MCP-1 binding was assessed as follows: to each reaction of a total volume of 150 μl were added 5×10^5 cells, 0.15 nM […], and compound such that the final concentration ranged from 0 to 100 nM. The plate was incubated at room temperature for 30 minutes followed by three washes with RPMI-1640, 0.1% BSA, 0.4 M NaCl, 20 mM Hepes, pH 7.4 using a vacuum manifold filtration (Millipore). After washing, the plate was air-dried for 60 minutes at room temperature. This was followed by adding 25 μl of Microscint 20 into each well. The plate was sealed and counted on the Trilux for 1 minute. Non-specific binding was determined in the presence of 300 nM cold MCP-1 (PeproTech Inc.). Specific 1-MCP-1 was calculated as the difference between total and non-specific binding. All conditions were tested in duplicate.

hERG [3] = biological target: T2, hERG (Homo sapiens, UniProt Q12809); test: hERG flux (Tl+ flux, FLIPR) in HEK293 cells; assay type: cell-based; conditions: HEK293 cells stably expressing hERG
T2 construct: expressed in transfected cells
Method: HEK293 cells stably-expressing hERG channels were grown (37° C., 5% CO2) in Dulbecco's Modified Eagle's Media supplemented with 10% Sigma fetal bovine serum, non-essential amino acids, 2 mM L-glutamine and 500 μg/ml G418, at incubator.
A 2 mM stock of BTC-AM dye (Molecular Probes, Eugene, Oreg.) was prepared in 100% DMSO and then added 1:1 to 10% (w/v) pluronic acid in DMSO on the day of assay. The dye was then diluted in hERG external EP buffer (140 mM NaCl, 4.0 mM KCl, 1.8 mM CaCl2, 1.0 mM MgCl2, 10 mM HEPES, pH 7.3 and 10 mM glucose; all buffer components obtained from Sigma Chemical). […] Cells are incubated at 21° C. for 45 minutes.
These compounds were then serially-diluted at a 1:2 ratio in DMSO in columns 1-10 and 11-20 of a 384-well plate. Assay-ready plates were generated by stamping 2.5 μl from the DMSO serially diluted plate, which was prepared on the Velocity 11 BioCel. Aqueous plates were created by adding 48 μl of EP buffer and then were diluted 30-45 minutes before the assay was read on the FLIPR. […] Final DMSO concentration in the assay is 1%. Assay-ready aqueous plates were prepared and diluted on a Cybio liquid handler.
Data collection proceeded every second for 48 seconds, and then continued every three seconds for an additional 2 minutes.
The dynamic range of the assay was determined from blanks and totals wells. The totals wells (columns 21 and 22) define maximal hERG activation for the plate (no test compound present), and the blanks wells (columns 23 and 24) define 100% hERG inhibition. […] Raw data points in each sample well were first corrected for cell/signal variation, negative control (blanks) background, and normalized to the positive controls (totals) using the online FLIPR software. Test compound concentration response curves for the hERG Tl^+ flux data were then fit using Excel Fit (ID Business Solutions Limited, Surrey, UK) with a single-site logistic equation, Y=A+((B−A)/1+((C/X)^D))) where A=maximal inhibition. Data were analyzed by fitting maximum amplitudes of change in fluorescence for Tl^+ flux for a given condition of test compound.

[4] = Parallel Artificial Membrane Permeability Assay (PAMPA); assay type: in vitro ADME; conditions: apical and basolateral pH 7.4
Method: All experiments are conducted in triplicate determinations.

hERG [5] = biological target: T2, hERG; test: hERG patch clamp (whole-cell, HEK-293); assay type: cell-based; conditions: for inhibition at 10000 nM: pH 7.4, 10,000 nM; for inhibition at 30000 nM: pH 7.4, 30,000 nM
[6] = biological target: human cardiac sodium channel, SCN5A (Nav1.5) (Homo sapiens, UniProt Q14524); test: Sodium channel patch clamp (whole-cell, HEK-293); assay type: cell-based; conditions: HEK-293 cells expressing human cardiac sodium channel SCN5A, 30,000 nM, read-out: Na+ channel patch clamp (% inhibition)
Method: The compound was tested at a protein-free aqueous buffer. For determining steady state inhibition, sodium currents were elicited every 5 seconds using the following voltage protocol: cells were held at a potential of −90 mV and stepped to −20 mV for 60 ms. Effects were calculated by measuring inhibition of peak current during the test pulse to −20 mV. Rate-dependence of inhibition was assessed by stimulation at frequencies of 1 Hz and 4 Hz.

human CCR2 [7] = biological target: T1, human CCR2; test: CCR2 chemotaxis (MCP-1-induced, THP-1 cells); assay type: cell-based; design: hPBMCs were isolated from human leukopak (Biological Specialty Inc.); endogenous in cells; host or cells: human peripheral blood mononuclear cells from leukopak (Biological Specialty Inc.)
Method: The human CCR2 chemotaxis assay was conducted with the human monocytic cell line, THP-1. THP-1 cells were first labeled with the fluorescent dye Calcein-AM in phenol red-free, BSA-free RPMI-1640 (pH 7.4) at 37° C. for 30 minutes with gentle mixing every 15 minutes. The labeled cells were then washed and re-suspended at 1×10^5/ml in chemotaxis buffer (phenol red-free RPMI-1640, 0.1% BSA, pH 7.4). The test compound was diluted in chemotaxis buffer such that the final assay concentration ranged from 0.01 nM to 1 μM. […] To perform the assay, an equal volume of test compound dilutions was mixed with an equal volume of labeled THP-1 cells (Mixture 1), and an equal volume of test compound dilutions was mixed with an equal volume of diluted MCP-1 ligand (Mixture 2). Both mixtures were incubated independently at 37° C. for 10 minutes followed by gentle mixing. MCP-1-induced chemotaxis was then measured in a chemotaxis plate (Becton Dickinson) by placing 50 μl of Mixture 1 in the top chamber and 225 μl of Mixture 2 in the bottom chamber. The plate was covered with a lid and incubated at 37° C. for 30 minutes. 30 minutes later, the plate was read on a Cytofluor. All conditions were tested in duplicate. […] The inhibition achieved by graded concentrations of test compound was calculated as a percentage of the compound-free MCP-1 control.

[8] = Single-dose pharmacokinetics in rats; assay type: in vivo; conditions: male, Sprague-Dawley, plasma, rat, dose per compound (mg/kg)
Method: (1500-2000×g) to obtain plasma. […] Plasma samples, obtained by centrifugation at 4° C.

[9] = Single-dose pharmacokinetics in monkeys; assay type: in vivo; conditions: male, cynomolgus monkey, plasma, dose per compound (mg/kg)
Description: (1500-2000×g) to obtain plasma.

[10] = metabolite examples, read-out: PBMC Binding IC50
[11] = figure in parentheses in the cell not copied (count of determinations), read-out: CCR2 Binding IC50

T2 sequence (Q12809 whole entry): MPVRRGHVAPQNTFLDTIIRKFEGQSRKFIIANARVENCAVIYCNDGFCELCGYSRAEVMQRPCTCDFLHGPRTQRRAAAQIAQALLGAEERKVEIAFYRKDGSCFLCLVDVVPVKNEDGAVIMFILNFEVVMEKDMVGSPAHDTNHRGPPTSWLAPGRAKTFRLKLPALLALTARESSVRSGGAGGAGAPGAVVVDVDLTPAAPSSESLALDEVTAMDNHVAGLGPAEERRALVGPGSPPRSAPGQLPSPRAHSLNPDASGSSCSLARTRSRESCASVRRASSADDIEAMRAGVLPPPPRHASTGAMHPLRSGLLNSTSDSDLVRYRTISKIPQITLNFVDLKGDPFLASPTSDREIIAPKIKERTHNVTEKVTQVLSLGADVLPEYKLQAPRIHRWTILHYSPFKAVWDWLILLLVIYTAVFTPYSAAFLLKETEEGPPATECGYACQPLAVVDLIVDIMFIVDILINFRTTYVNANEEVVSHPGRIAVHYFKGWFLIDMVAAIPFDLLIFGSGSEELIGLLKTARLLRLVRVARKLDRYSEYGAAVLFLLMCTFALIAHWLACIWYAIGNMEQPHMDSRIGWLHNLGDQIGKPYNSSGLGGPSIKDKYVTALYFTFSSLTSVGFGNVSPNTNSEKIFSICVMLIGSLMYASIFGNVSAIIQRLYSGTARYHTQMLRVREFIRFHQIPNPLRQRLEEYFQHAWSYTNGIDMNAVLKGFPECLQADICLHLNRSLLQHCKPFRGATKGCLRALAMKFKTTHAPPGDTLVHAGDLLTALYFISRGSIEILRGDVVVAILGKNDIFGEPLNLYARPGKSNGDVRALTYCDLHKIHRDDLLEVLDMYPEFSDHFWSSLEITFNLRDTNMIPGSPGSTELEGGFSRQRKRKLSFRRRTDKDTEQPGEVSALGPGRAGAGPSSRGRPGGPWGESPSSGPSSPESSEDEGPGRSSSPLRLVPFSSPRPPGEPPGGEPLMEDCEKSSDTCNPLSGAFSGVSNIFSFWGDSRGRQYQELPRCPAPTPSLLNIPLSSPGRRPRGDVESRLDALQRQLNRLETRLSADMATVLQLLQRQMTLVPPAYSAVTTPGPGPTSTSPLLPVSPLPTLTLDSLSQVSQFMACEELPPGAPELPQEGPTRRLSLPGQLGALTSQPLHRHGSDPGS
Chain of human cardiac sodium channel, SCN5A (Nav1.5) (Q14524 whole entry): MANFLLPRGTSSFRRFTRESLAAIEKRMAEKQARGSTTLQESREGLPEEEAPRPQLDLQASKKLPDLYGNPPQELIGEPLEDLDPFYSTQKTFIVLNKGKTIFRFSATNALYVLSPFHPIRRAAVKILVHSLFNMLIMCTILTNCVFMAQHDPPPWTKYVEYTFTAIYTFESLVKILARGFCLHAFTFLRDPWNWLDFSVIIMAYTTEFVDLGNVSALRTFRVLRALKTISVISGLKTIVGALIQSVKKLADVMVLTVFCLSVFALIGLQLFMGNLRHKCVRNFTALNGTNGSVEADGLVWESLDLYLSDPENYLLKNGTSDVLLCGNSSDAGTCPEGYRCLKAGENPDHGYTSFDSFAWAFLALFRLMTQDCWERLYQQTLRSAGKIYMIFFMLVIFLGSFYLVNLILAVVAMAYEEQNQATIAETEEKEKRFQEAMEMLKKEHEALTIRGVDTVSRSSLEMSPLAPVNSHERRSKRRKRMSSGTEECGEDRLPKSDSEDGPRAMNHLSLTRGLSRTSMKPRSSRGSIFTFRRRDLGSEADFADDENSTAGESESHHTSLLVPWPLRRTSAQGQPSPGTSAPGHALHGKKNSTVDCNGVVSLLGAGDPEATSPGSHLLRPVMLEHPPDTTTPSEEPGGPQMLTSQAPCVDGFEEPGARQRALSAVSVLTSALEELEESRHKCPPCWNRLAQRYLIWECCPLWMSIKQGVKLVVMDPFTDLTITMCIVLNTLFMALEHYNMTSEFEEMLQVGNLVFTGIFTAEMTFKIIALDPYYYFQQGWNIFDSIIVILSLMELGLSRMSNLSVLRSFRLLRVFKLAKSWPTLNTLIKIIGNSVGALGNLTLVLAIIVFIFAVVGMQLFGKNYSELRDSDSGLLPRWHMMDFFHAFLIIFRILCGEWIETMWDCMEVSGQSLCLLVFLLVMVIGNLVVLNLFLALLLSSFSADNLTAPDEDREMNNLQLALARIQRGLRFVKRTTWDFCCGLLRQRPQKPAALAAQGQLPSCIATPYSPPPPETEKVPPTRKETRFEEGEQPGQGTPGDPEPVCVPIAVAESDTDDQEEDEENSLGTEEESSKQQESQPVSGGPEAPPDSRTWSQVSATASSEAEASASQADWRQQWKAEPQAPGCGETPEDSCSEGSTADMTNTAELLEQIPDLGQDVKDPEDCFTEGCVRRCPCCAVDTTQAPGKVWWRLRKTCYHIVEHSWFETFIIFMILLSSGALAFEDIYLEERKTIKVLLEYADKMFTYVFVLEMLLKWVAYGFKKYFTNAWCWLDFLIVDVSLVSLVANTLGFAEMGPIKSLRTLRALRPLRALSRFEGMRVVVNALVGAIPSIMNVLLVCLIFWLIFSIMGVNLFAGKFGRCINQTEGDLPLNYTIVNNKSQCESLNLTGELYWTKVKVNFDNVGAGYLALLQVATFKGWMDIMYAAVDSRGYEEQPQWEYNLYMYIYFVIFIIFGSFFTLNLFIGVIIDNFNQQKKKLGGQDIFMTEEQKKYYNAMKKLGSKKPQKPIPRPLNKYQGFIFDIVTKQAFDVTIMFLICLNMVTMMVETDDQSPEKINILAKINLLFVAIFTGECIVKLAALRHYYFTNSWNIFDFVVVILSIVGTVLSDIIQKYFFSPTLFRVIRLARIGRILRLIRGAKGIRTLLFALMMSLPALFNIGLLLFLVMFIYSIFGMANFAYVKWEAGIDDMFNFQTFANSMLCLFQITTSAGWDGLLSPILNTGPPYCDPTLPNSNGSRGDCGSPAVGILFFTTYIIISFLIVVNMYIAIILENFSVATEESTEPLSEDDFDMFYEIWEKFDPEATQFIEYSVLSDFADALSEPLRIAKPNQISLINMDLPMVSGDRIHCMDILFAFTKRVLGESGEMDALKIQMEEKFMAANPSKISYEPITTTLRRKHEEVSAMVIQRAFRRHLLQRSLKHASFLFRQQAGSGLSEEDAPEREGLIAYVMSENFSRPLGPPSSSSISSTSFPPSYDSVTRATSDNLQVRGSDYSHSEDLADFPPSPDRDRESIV

Compound: CC(=O)N[C@@H]1C[C@H](N)CC[C@@H]1N1CC[C@H](Nc2ncnc3ccc(C(F)(F)F)cc23)C1=O [Example 4, N-((1R,2S,5R)-5-amino-2-((3S)-2-oxo-3-((6-(trifluoromethyl)-4-quinazolinyl)amino)-1-pyrrolidinyl)cyclohexyl)acetamide]
- IC50 (human CCR2 [1]): 4.22 ± 1.22 nM
- IC50 (human CCR2 [2]; [10]): 3.46 ± 1.1 nM

Compound: CC(=O)N[C@@H]1C[C@H](N(C)C(C)C)CC[C@@H]1N1CC[C@H](Nc2nc[n+]([O-])c3ccc(C(F)(F)F)cc23)C1=O [Example 5, N-((1R,2S,5R)-5-(isopropyl(methyl)amino)-2-((3S)-3-((1-oxido-6-(trifluoromethyl)-4-quinazolinyl)amino)-2-oxo-1-pyrrolidinyl)cyclohexyl)acetamide]
- IC50 (human CCR2 [1]): 21.3 nM
- IC50 (human CCR2 [2]; [10]): 27.5 ± 1.4 nM

Compound: CC(=O)N[C@@H]1C[C@H](NC(C)C)CC[C@@H]1N1CC[C@H](Nc2nc[n+]([O-])c3ccc(C(F)(F)F)cc23)C1=O [Example 6, N-((1R,2S,5R)-5-(isopropylamino)-2-((3S)-3-((1-oxido-6-(trifluoromethyl)-4-quinazolinyl)amino)-2-oxo-1-pyrrolidinyl)cyclohexyl)acetamide]
- IC50 (human CCR2 [1]): 139 nM

Compound: CC(C)N(C)[C@@H]1CC[C@H](N2CC[C@H](Nc3ncnc4ccc(C(F)(F)F)cc34)C2=O)[C@H](NC=O)C1 [Example 7, N-((1R,2S,5R)-5-(isopropyl(methyl)amino)-2-((S)-2-oxo-3-(6-(trifluoromethyl)quinazolin-4-ylamino)pyrrolidin-1-yl)cyclohexyl)formamide]
- IC50 (hERG [3]): > 80000 nM
- Papp at 4 h, 100 µM [4]: 32.6 ± 22.1 ×10⁻⁶ cm/s
- inhibition at 10000 nM (hERG [5]): 12%
- inhibition at 30000 nM (hERG [5]): 29%
- inhibition at 30000 nM [6]: 10%
- IC50 (human CCR2 [2]; [11]): 1.72 ± 0.54 nM
- IC50 (human CCR2 [7]): 2.85 nM

Compound: CC(=O)N[C@@H]1C[C@H](N(C)C(C)C)CC[C@@H]1N1CC[C@H](NC(=O)c2cccc(C(C)(C)C)n2)C1=O [Example 9, N-((3S)-1-((1S,2R,4R)-2-acetamido-4-(isopropyl(methyl)amino)cyclohexyl)-2-oxo-3-pyrrolidinyl)-6-tert-butyl-2-pyridinecarboxamide]
- IC50 (hERG [3]): > 80000 nM
- Papp at 4 h, 100 µM [4]: 26.6 ×10⁻⁶ cm/s
- inhibition at 10000 nM (hERG [5]): 26%
- inhibition at 30000 nM (hERG [5]): 41%
- inhibition at 30000 nM [6]: 6%
- IC50 (human CCR2 [2]; [11]): 1.69 ± 0.67 nM
- IC50 (human CCR2 [7]): 0.35 nM

Compound: CCC(=O)N[C@@H]1C[C@H](N)CC[C@@H]1N1CC[C@H](Nc2ncnc3ccc(C(F)(F)F)cc23)C1=O [Example 10, N-((1R,2S,5R)-5-amino-2-((3S)-2-oxo-3-((6-(trifluoromethyl)-4-quinazolinyl)amino)-1-pyrrolidinyl)cyclohexyl)propanamide]
- IC50 (hERG [3]): > 80000 nM
- Papp at 4 h, 100 µM [4]: 22.8 ×10⁻⁶ cm/s
- inhibition at 30000 nM (hERG [5]): 33%
- inhibition at 30000 nM [6]: 35%
- clearance ([8]; IV): 45 mL/min/kg
- AUC ([8]; PO): 4.23 µM·h
- bioavailability ([8]; oral bioavailability): 57%
- clearance ([9]; IV): 21 mL/min/kg
- AUC ([9]; PO): 1.08 µM·h
- bioavailability ([9]; oral bioavailability): 67%
- IC50 (human CCR2 [2]; [11]): 5.18 ± 1.98 nM
- IC50 (human CCR2 [7]): 1.6 ± 0.42 nM
